Source: patent US20060193804A1, “Haircare use of cyclic amine derivatives” (L'OREAL, priority 2005, published 2006)

Test system: human striated muscle cells innervated with explants of rat embryonic spinal ganglia and spinal cord
Test: nerve/muscle coculture model: frequency of muscle fiber contractions
Format: cell-based
Settings: for inhibition at 10 µM: Homo sapiens, concentration of 10^−5 M, contractions counted over 30 seconds after incubation for 60 seconds, read-out: inhibition of the frequency of contraction of the muscle fibers
Procedure: Compounds 1 and 2 were tested at a given concentration, on a model of nerve/muscle coculture, which makes it possible to recreate a motor arc by innervating human striated muscle cells with explants of rat embryonic spinal ganglia and spinal cord.
This test is predictive of an inhibitory effect on muscle fiber contractions.
The protocol adopted is as follows:
Human myoblasts (primary culture of human muscle cells, M1b) were inoculated in 24-well plates. The culture medium is a mixture of ⅔ MEM (Invitrogen 21090-022), ⅓ M199 (Invitrogen 31153-026) and 5% FCS. At confluence, spinal cord explants from 13-day-old rat embryos are placed on the primary culture. The first contractions of the muscle fibers are observed after one week of coculture. After three weeks, these muscle fibers are striated and have mature differentiated neuromuscular junctions.
The products are tested in triplicate (3 fibers analysed) at two concentrations. For each culture well, a muscle fiber having regular contractions (>60 contractions per minute) is selected and the number of contractions is counted over 30 seconds. The test product is then added to the culture medium under a microscope without moving the microscope stage. After incubation for 60 seconds, the number of contractions is again counted over 30 seconds. The whole experiment is recorded using a digital camera. The videos are saved on an electronic medium.

SMILES | dose-response effect on contraction of the muscle fibers | inhibition at 10 µM [%]
c1ccc(CCCCN2CCC(c3ccccc3)CC2)cc1 [Compound 1] | induces a dose-response effect | 50
c1ccc(CCCC2CCN(CCCc3ccccc3)CC2)cc1 [Compound 2] |  | ~55
